Data published in patent publication EP0462621A2, “Use of particular compounds for manufacture of pharmaceutical formulations for treatment against various parasites, mycoplasmas, other indications and other infections” (Prendergast, Patrick Thomas, priority 1990, dated 1991).

Tests used:
[1] = Stability of IPA on storage; type: physicochemical
Method: Compounds of Formula la (IPA) have especially low toxicity for pediatrics, and acceptable toxicity of adult humans, although it is somewhat higher than for pediatrics. IPA can be stored dry almost indefinitely if protected from light and stored at -75 °C. IPA is photosensitive and deteriorates at room temperature, whether in a solid form or in aqueous or ethanolic solutions. It was found in experiments that the breakdown rate of IPA is approximately 3% per month in a dark container at room temperature.
Two lots of IPA (Sample 1 and Sample 2) were tested.
Infrared spectra of IPA, taken from time to time, as described below, were used to monitor changes which may have occurred in the IPA over time. The compound was generally stored at -10° C. FT-IR data of fresh IPA are listed in the first column of Table la(m). A second FT-IR spectrum of the same compound, after storage at -10 C for 110 days, was taken and the data are listed in the second column of Table la(m). The melting point of the compound was taken at the same time. The original melting point was 128-130 C, and the second melting point, 110 days later, was 129-132 C.
The observed melting points compare favorably with literature melting points ranging from 126° C to 138° C.

PBL = assay: Growth of PBL following cocultivation of patient's lymphocytes with PHA-PBL; type: cell-based, human; settings: 30 u.M or lower; up to 10 days in culture
T lymphocytes = assay: Lymphocyte blastogenesis assay, T lymphocytes (PHA); type: cell-based, human
Method: (§1) T and B lymphocytes from normal human donors were incubated for 30 minutes at various dose levels of the compounds indicated. The lymphocytes were added in triplicate wells in gentamicin and phytohemagglutinin (PHA) (a T cell mitogen), pokeweed mitogen (PWM) (a B cell mitogen) and allogeneic mononuclear cells (mixed leukocyte cultures; MLC) or media containing the above additives. The lymphocyte blastogenesis assay is described in detail below.
(§2) The data are represented as the mean of the three replicates. The results are presented in Charts la(e) (i) and la(e) (ii) (Figs. 1 and 2). […] A reduction of both T lymphocytes' abilities to proliferate was obtained when 100 u.M or greater concentrations of IPA was added to the cell cultures. Proliferative activity of T lymphocytes by 25% at the 30 u.M concentration of IPA in the experiment.
(§3) • 1. Mononuclear cells are separated from whole blood by differential centrifugation using a synthetic separation medium, or are thawed from a cryopreserved preparation. The cells are washed and resuspended in media (RPMI - 1640, L-Glutamine 2mM, Herpes Buffer 25mM, Gentamicin 50 ug/ml, Human AB Serum-heat inactivated (56°, 30°) 20%). • 2. A viable cell count is determined. • 3. Cell concentration is adjusted to 2 x 10^6 /ml in media. • 4. The cell suspension is added to wells of a 96-well flat bottom plate in 0.1 ml aliquots (2 x 10^5 cells). • 5. The selected mitogens and/or antigens (in media without serum) are added to the cells in the wells also in 0.1 ml aliquots. • 6. The cultures are incubated for 3-7 days (depending upon the mitogen or antigen) at 37° C in a humidified 5% C02 atmosphere. • 7. Six to eight hours before termination of cultures 0.05 ml (1 µCi) of ^3HTdR sp. act 6.7 Ci/mM (20 µCi/ml stock) is added to each well. • 8. At termination of cultures the cells are harvested onto strips of scintillation-grade fibreglass paper using a multiple sample harvester. • 9. Perforated disks from the fibreglass paper of the harvested cultures are placed each into scintillation vials to which is then added 5 ml of toluene based scintillation cocktail. • 10. The vials are counted in a liquid scintillation counter for one minute where the amount of incorporated ^3HTdR is determined.
(§4) net CPM = xCPM of mitogen/antigen cultures - xCPM of media cultures.

T. cruzi [2] = assay: T. cruzi trypomastigote (TRY) in-vitro screen; type: cell-based
B lymphocytes = assay: Lymphocyte blastogenesis assay, B lymphocytes (PWM); type: cell-based, human
Method: as §1, §2, §3, §4

[3] = system: Human peripheral blood mononuclear cells; assay: Experiment 1a(d): human cell viability, trypan blue counts; type: cell-based; settings: 18 hours; for Cells/ml (x10^5) / Viability (%): 37° C
Method: Human peripheral blood mononuclear cells were incubated for 18 hours in the presence of various concentrations of IPA and azidothymidine (AZT) at 37° C after which time cell viability was determined by visual counts of cells in the presence of trypan blue. Two controls were run, one with each series of experiments.

T. cruzi [4] = assay: T. cruzi epimastigote (EPI) in-vitro screen; type: cell-based
H9-HIV-1 cells = assay: Cytotoxicity in persistently infected H9-HIV-1 cells, viable cell number; type: cell-based, human; settings: 30 u.M and lower; up to 30 days
[5] = Case study one: AIDS patient treated with IPA; type: in vivo, human; settings: IPA from February 1989
Method: A case study of an AIDS patient one, was conducted. Patient one began treatment with IPA in February 1989, while in a nearly moribund condition, suffering from depression, exhaustion, bronchial infection, severe diarrhoea, severe weight loss (weight in February was 98 lbs.), complete loss of appetite and spiked fever. […] By March 21, 1989, patient one stated that they felt cured and abruptly (unilaterally) stopped taking IPA, resulting in dramatic deterioration of their condition. In May, 1989, patient one resumed IPA therapy, and experienced dramatic recovery. At the end of May, 1989, patient one again stopped taking IPA, and their condition again deteriorated. Again IPA treatment was restarted, and patient one's condition improved. In early June, 1989, patient one again stopped IPA therapy and died several weeks later.
The study concluded that patient one would have apparently enjoyed appreciable therapeutic benefits from IPA if they had conscientiously and continuously received IPA medication.

[6] = 1000 µM down to 10 µM, third experiment (Figs. 7 and 8)

Compound: CC(C)=CCNc1ncnc2c1ncn2[C@@H]1O[C@H](CO)[C@@H](O)[C@H]1O [IPA, N^6-(Δ^2-isopentenyl) adenosine]
- change in the compound on storage ([1]; Sample 1, tests over four months): no change in the compound
- breakdown rate ([1]; dark container at room temperature): approximately 3 % per month
- change in the FT-IR spectrum on storage ([1]; storage at -10 C for 110 days): little change in the FT-IR spectrum
- cytotoxic effect on the growth of viable PHA stimulated PBL (PBL): did not have any significant cytotoxic effect
- T lymphocyte responsiveness (T lymphocytes; 10 µM, third experiment): Increased
- T lymphocyte function (T lymphocytes; [6]): reductions
- T lymphocyte proliferation (T lymphocytes; 0.1 - 10 µM, first experiment): No effect or an increase
- reduction in T lymphocyte function (T lymphocytes; 30 -35 u.M, third experiment): ~25%
- T lymphocyte proliferation (T lymphocytes; 30 down to 10 u.M, second experiment (Figs. 3 and 4)): No appreciable reduction
- Proliferative activity of T lymphocytes, change (T lymphocytes; 30 u.M, first experiment): 25%
- T lymphocytes' abilities to proliferate (T lymphocytes; 100 u.M or greater, first experiment (Figs. 1 and 2)): reduction
- activity, TRY (T. cruzi [2]; T. cruzi strain Sonya): + (Y,Sonya)
- activity, TRY (T. cruzi [2]; T. cruzi strain Y): + (Y,Sonya)
- B lymphocyte responsiveness (B lymphocytes; 10 µM, third experiment): Increased
- B lymphocyte function (B lymphocytes; [6]): reductions
- B lymphocyte proliferation (B lymphocytes; 0.1 - 10 µM, first experiment): No effect or an increase
- reduction in B lymphocyte function (B lymphocytes; 30 -35 u.M, third experiment): ~25%
- reduction of B lymphocyte proliferation (B lymphocytes; between the 30 -10 u.M concentration levels, second experiment, approximate): 30 -50%
- Cells/ml (x10^5) ([3]; 0.1 µM): 2.4 Cells/ml (x10^5)
- Viability (%) ([3]; 0.1 µM): 86%
- Cells/ml (x10^5) ([3]; 0.3 µM): 1.8 Cells/ml (x10^5)
- Viability (%) ([3]; 0.3 µM): 82%
- Cells/ml (x10^5) ([3]; 1 µM): 2.8 Cells/ml (x10^5)
- Viability (%) ([3]; 1 µM): 100%
- Cells/ml (x10^5) ([3]; 3 µM): 2.6 Cells/ml (x10^5)
- Viability (%) ([3]; 3 µM): 87%
- Cells/ml (x10^5) ([3]; 10 µM): 3.0 Cells/ml (x10^5)
- Viability (%) ([3]; 10 µM): 94%
- Cells/ml (x10^5) ([3]; 30 µM): 3.8 Cells/ml (x10^5)
- Viability (%) ([3]; 30 µM): 95%
- Cells/ml (x10^5) ([3]; 100 µM): 3.8 Cells/ml (x10^5)
- Viability (%) ([3]; 100 µM): 90%
- Cells/ml (x10^5) ([3]; 300 µM): 2.2 Cells/ml (x10^5)
- Viability (%) ([3]; 300 µM): 79%
- Cells/ml (x10^5) ([3]; 1000 µM): 2.8 Cells/ml (x10^5)
- Viability (%) ([3]; 1000 µM): 82%
- Cells/ml (x10^5) ([3]; 3000 µM): 2.2 Cells/ml (x10^5)
- Viability (%) ([3]; 3000 µM): 92%
- cell viability ([3]; 6mM): slight reduction
- Cells/ml (x10^5) ([3]; 6000 µM): 2.4 Cells/ml (x10^5)
- Viability (%) ([3]; 6000 µM): 75%
- toxic effect (cell viability) ([3]; concentrations of from 0.1 µM to 3 u.M): no toxic effect
- activity, EPI (T. cruzi [4]; T. cruzi strain MR): ++(Y,MR, Sonya)
- activity, EPI (T. cruzi [4]; T. cruzi strain Sonya): ++(Y,MR, Sonya)
- activity, EPI (T. cruzi [4]; T. cruzi strain Y): ++(Y,MR, Sonya)
- cytotoxicity, viable cell number (H9-HIV-1 cells): No cytotoxicity
- T and B lymphocyte competence [5]: major rapid recovery
